Reference: paper PMC8840619, “Conjugation of Palbociclib with MHI-148 Has an Increased Cytotoxic Effect for Breast Cancer Cells and an Altered Mechanism of Action” (Molecules, 2022)
Where two headings read alike, the source gives them in different places.

What was measured:
HEK293 [1] = assay: [3H]-thymidine incorporation cell proliferation assay; type: cell-based, human; conditions: 3 days of treatment, mean ± SEM
Description: (§1) As described previously, 3000 cells per well were seeded in 96-well plates and incubated in the presence of varying concentrations of drugs for three days. Cell proliferation was measured by thymidine uptake assay, cell growth by sulforhodamine B (SRB) colorimetric assay, and cell viability by WST-1 assay, as previously described.
(§2) Briefly, for the proliferation assay, [^3H]-thymidine (0.04 μCi) was added to each well and plates were incubated for 5 h, after which the cells were harvested onto glass–fiber filters using an automated TomTec harvester. Filters were incubated with Betaplate Scint and [^3H]-thymidine incorporation was measured in a Trilux/Betaplate counter. Cell proliferation was determined by the percentage incorporation of [^3H]-thymidine.

MCF-7 [2] = assay: as above; type: cell-based, human; conditions: 3 days of treatment, mean ± SEM
Description: as §1, §2

MDA-MB-231 [3] = assay: as above; type: cell-based, human; conditions: for IC50: MDA-MB-231, 3 days of treatment, mean ± SEM
Description: as §1, §2

51D1.3 [4] = assay: as above; type: cell-based, Chinese hamster; conditions: 3 days of treatment, mean ± SEM
Description: as §1, §2

51D1 [5] = assay: as above; type: cell-based, Chinese hamster; conditions: 3 days of treatment, mean ± SEM
Description: as §1, §2

HEK293 [6] = assay: SRB cell growth assay; type: cell-based, human; conditions: 3 days of treatment, mean ± SEM
Description: as §1
(§3) The SRB colorimetric assay, which is based on the measurement of cellular protein content, was used to measure cell density. After drug treatment for 3 days, cells were fixed with 10% (wt/vol) trichloroacetic acid and stained for 30 min, and the excess dye was removed by washing repeatedly with 1% (vol/vol) acetic acid. The protein-bound dye was dissolved in Tris base solution (10 mM) for optical density determination at 510 nm using a microplate reader. Optimal cell densities were previously determined to select initial cell densities that ensured that cells were in logarithmic phase for the experiments.

MCF-7 [7] = assay: SRB cell growth assay; type: cell-based, human; conditions: for IC50: 3 days of treatment, mean ± SEM
Description: as §1, §3

MDA-MB-231 [8] = assay: SRB cell growth assay; type: cell-based, human; conditions: for IC50: 3 days of treatment, mean ± SEM
Description: as §1, §3

51D1.3 [9] = assay: SRB cell growth assay; type: cell-based, Chinese hamster; conditions: 3 days of treatment, mean ± SEM
Description: as §1, §3

51D1 [10] = assay: SRB cell growth assay; type: cell-based, Chinese hamster; conditions: 3 days of treatment, mean ± SEM
Description: as §1, §3

HEK293 [11] = assay: WST-1 cell viability assay; type: cell-based, human; conditions: for IC50: 3 days of treatment, mean ± SEM; for EC50: Supplementary Table S1
Description: as §1
(§4) For viability, […] activity was measured using a water-soluble tetrazolium salt (WST-1) (purchased from Roche, Basel, Switzerland) after drug treatment for 3 days. The stable tetrazolium salt WST-1 is cleaved to a soluble formazan by a complex cellular mechanism that occurs primarily at the cell surface. This bio-reduction is largely dependent on the glycolytic production of NAD(P)H in viable cells. Therefore, the amount of formazan dye formed directly correlates with the number of metabolically active cells in the culture.

MCF-7 [12] = assay: WST-1 cell viability assay; type: cell-based, human; conditions: for IC50: 3 days of treatment, mean ± SEM; for EC50: MCF7, Supplementary Table S1
Description: as §1, §4

MDA-MB-231 [13] = assay: WST-1 cell viability assay; type: cell-based, human; conditions: for IC50: 3 days of treatment, mean ± SEM; for EC50: Supplementary Table S1
Description: as §1, §4

51D1.3 [14] = assay: WST-1 cell viability assay; type: cell-based, Chinese hamster; conditions: for IC50: 3 days of treatment, mean ± SEM; for EC50: Supplementary Table S1
Description: as §1, §4

51D1 [15] = assay: WST-1 cell viability assay; type: cell-based, Chinese hamster; conditions: for IC50: 3 days of treatment, mean ± SEM; for EC50: Supplementary Table S1
Description: as §1, §4

[16] = Absorbance spectra in DMSO; type: physicochemical; conditions: 25 °C
Description: The absorbance and fluorescence emission spectra of up to 7 three-fold serial dilutions of MHI-148 and MHI-palbociclib in DMSO, ranging from […], were acquired at 25 °C.
• (a) Absorbance spectra of the test compound solutions (200 μL) plated in a 96-well polystyrene flat-bottom transparent microplate were acquired on a quad monochromator-equipped microplate reader Enspire 2300 (Perkin-Elmer; Singapore) from 650 nm to 900 nm in 1 nm increments. • (b) Fluorescence emission spectra of the compound solutions in a 2 mL semi-micro quartz cuvette were measured on a FP-8600 spectrofluorometer (JASCO; Japan) between 790 nm and 850 nm in 1 nm increments at the excitation wavelength of 780 nm. The fluorescence emission was measured at a high sensitivity of the instrument, with an excitation and emission bandwidth of 5 nm, a 50 ms response time, and a scan speed of 1000 nm per minute.

MCF-7 [17] = test system: MCF-7; parameters: method as in PMID 30370249; conditions: read-out: IC50 proliferation; cited from earlier work
MDA-MB-231 [18] = test system: MDA-MB-231; parameters: method as in PMID 30370249; conditions: read-out: IC50 proliferation; cited from earlier work
MDA-MB-231 cells [19] = assay: Flow cytometry cell cycle analysis (DNA content, PI); type: cell-based, human; conditions: 500 nM for 24 h, untreated cells 48%
Description: As previously described, cells (1 × 10^6 cells) were grown in six-well plates and incubated with drugs for 24 h. Cells were harvested, washed with 1% FBS/phosphate-buffered saline (PBS), resuspended in 200 μL of PBS, fixed in 2 mL of ice-cold 100% ethanol, and stored overnight at −20 °C. The cells were washed and resuspended in 1 mL of 1% FBS/PBS, containing RNase (1 μg/mL) and propidium iodide (PI) (10 μg/mL), for 30 min at room temperature. DNA content was determined using […] by PI staining based on a total of 25,000 acquired events on a BD Biosciences Accuri C6 flow cytometer, and cell cycle distribution was analysed using FlowJo version 10.7.2.

MDA-MB-231 cells [20] = assay: Propidium iodide staining of dying cells; type: cell-based, human; conditions: 1 µM for 24 h
Description: Cells (1 × 10^6) were incubated with drugs for 24 h. Cells were next incubated with 50 μg/mL PI in growth media for 15 min at room temperature and protected from light. Cell death was monitored by fluorescence staining of DNA by PI and analysed by fluorescent microscopy using a Floid imaging station (460× magnification).

[21] = Behaviour in aqueous environments (solubility observation); type: physicochemical; conditions: high concentration
MDA-MB-231 [22] = conditions: data from Finn et al.
MCF-7 [23] = test system: MCF-7; parameters: method as in earlier work; conditions: different proliferation assay, ref 21 (Finn et al.), read-out: IC50 proliferation, previously reported; cited from earlier work
MDA-MB-231 [24] = test system: MDA-MB-231; parameters: method as in earlier work; conditions: different proliferation assay, ref 21 (Finn et al.), read-out: IC50 proliferation, previously reported; cited from earlier work

Compound: CC1(C)C(/C=C/C2=C(Cl)C(=C/C=C3/N(CCCCCC(=O)O)c4ccccc4C3(C)C)/CCC2)=[N+](CCCCCC(=O)O)c2ccccc21.[Br-] [MHI-148, 1-(5-Carboxypentyl)-2-((E)-2-((E)-3-(2-((E)-1-(5-carboxypentyl)-3,3-dimethylindolin-2-ylidene)ethylidene)-2-chlorocyclohex-1-en-1-yl)vinyl)-3,3-dimethyl-3H-indol-1-ium bromide]
- IC50 (HEK293 [1]; Homo sapiens, 72 h): > 2500 nM
- IC50 (MCF-7 [2]; Homo sapiens, MCF7, 72 h): > 2500 nM
- IC50 (MDA-MB-231 [3]; Homo sapiens, 72 h): > 2500 nM
- IC50 (51D1.3 [4]; Cricetulus griseus, 72 h): > 2500 nM
- IC50 (51D1 [5]; Cricetulus griseus, 72 h): > 2500 nM
- IC50 (HEK293 [6]; Homo sapiens, 72 h): > 2500 nM
- IC50 (MCF-7 [7]; Homo sapiens, MCF7, 72 h): > 2500 nM
- IC50 (MDA-MB-231 [8]; Homo sapiens, 72 h): > 2500 nM
- IC50 (51D1.3 [9]; Cricetulus griseus, 72 h): > 2500 nM
- IC50 (51D1 [10]; Cricetulus griseus, 72 h): > 2500 nM
- IC50 (HEK293 [11]; Homo sapiens, 72 h): > 2500 nM
- EC50 (HEK293 [11]; Homo sapiens): > 2500 nM
- IC50 (MCF-7 [12]; Homo sapiens, MCF7, 72 h): > 2500 nM
- EC50 (MCF-7 [12]; Homo sapiens): > 2500 nM
- IC50 (MDA-MB-231 [13]; Homo sapiens, 72 h): > 2500 nM
- EC50 (MDA-MB-231 [13]; Homo sapiens): > 2500 nM
- IC50 (51D1.3 [14]; Cricetulus griseus, 72 h): > 2500 nM
- EC50 (51D1.3 [14]; Cricetulus griseus): > 2500 nM
- IC50 (51D1 [15]; Cricetulus griseus, 72 h): > 2500 nM
- EC50 (51D1 [15]; Cricetulus griseus): > 2500 nM
- Absorbance λmax [16]: 797 nm

Compound: CC(=O)O[C@H]1C(=O)[C@@]2(C)[C@H]([C@H](OC(=O)c3ccccc3)[C@]3(O)C[C@H](OC(=O)[C@H](O)[C@@H](NC(=O)c4ccccc4)c4ccccc4)C(C)=C1C3(C)C)[C@]1(OC(C)=O)CO[C@@H]1C[C@@H]2O [paclitaxel]
- IC50 (MCF-7 [17]): 9.05 ± 0.04 nM
- IC50 (MDA-MB-231 [18]): 5.8 ± 1.13 nM

Compound: CC(=O)c1c(C)c2cnc(Nc3ccc(N4CCN(C(=O)CCCCCN5/C(=C/C=C6\CCCC(/C=C/C7=[N+](CCCCCC(=O)N8CCN(c9ccc(Nc%10ncc%11c(C)c(C(C)=O)c(=O)n(C%12CCCC%12)c%11n%10)nc9)CC8)c8ccccc8C7(C)C)=C6Cl)C(C)(C)c6ccccc65)CC4)cn3)nc2n(C2CCCC2)c1=O.[Br-] [MHI-palbociclib]
- IC50 (HEK293 [1]): 170 ± 4.1 nM
- IC50 (MCF-7 [2]): 215.4 ± 0.8 nM
- IC50 (MDA-MB-231 [3]): 170 ± 9.7 nM
- IC50 (51D1.3 [4]): 217 ± 8.7 nM
- IC50 (51D1 [5]): 205 ± 4.6 nM
- IC50 (HEK293 [6]): 171 ± 7.9 nM
- Growth inhibitory effect compared with combination of unconjugated palbociclib and MHI-148 (MCF-7 [7]; 2.5 μM, 3 days, t-test p = 0.002): significantly greater
- IC50 (MCF-7 [7]): 506 ± 93.6 nM
- Growth inhibitory effect compared with combination of unconjugated palbociclib and MHI-148 (MDA-MB-231 [8]; 2.5 μM, 3 days, t-test p = 0.003): significantly greater
- IC50 (MDA-MB-231 [8]): 683 ± 29.6 nM
- IC50 (51D1.3 [9]): 164 ± 6.8 nM
- IC50 (51D1 [10]): 187 ± 3.9 nM
- IC50 (HEK293 [11]): 418 ± 68.3 nM
- EC50 (HEK293 [11]): 544 nM
- IC50 (MCF-7 [12]): 845 ± 34.3 nM
- IC50 (MDA-MB-231 [13]): 1020 ± 150 nM
- EC50 (MDA-MB-231 [13]): 872 nM
- IC50 (51D1.3 [14]): 401 ± 89 nM
- EC50 (51D1.3 [14]): 471 nM
- IC50 (51D1 [15]): 197 ± 15.7 nM
- EC50 (51D1 [15]): 265 nM
- G1 cell cycle arrest (proportion of cells in G1) (MDA-MB-231 cells [19]): 55%
- PI staining of dying cells (cytotoxic effect) (MDA-MB-231 cells [20]): increased PI staining and reduced cell number
- Absorbance λmax [16]: 800 nm
- Behaviour in aqueous environments [21]: rapidly precipitates in aqueous environments

Compound: CC(=O)c1c(C)c2cnc(Nc3ccc(N4CCNCC4)cn3)nc2n(C2CCCC2)c1=O [Palbociclib]
- IC50 (MCF-7 [2]; Homo sapiens, MCF7, 72 h): 29.1 ± 8.6 nM
- IC50 (MDA-MB-231 [3]; Homo sapiens, 72 h): 72.2 ± 2.8 nM
- Fold difference of the IC50 of the two cell lines (MDA-MB-231 vs MCF-7) (MDA-MB-231 [3]; thymidine incorporation, own data): 2.5 fold
- IC50 (HEK293 [6]; Homo sapiens, 72 h): > 2500 nM
- IC50 (MCF-7 [7]; Homo sapiens, MCF7, 72 h): > 2500 nM
- IC50 (MDA-MB-231 [8]; Homo sapiens, 72 h): > 2500 nM
- IC50 (51D1.3 [9]; Cricetulus griseus, 72 h): > 2500 nM
- IC50 (51D1 [10]; Cricetulus griseus, 72 h): > 2500 nM
- IC50 (HEK293 [11]; Homo sapiens, 72 h): > 2500 nM
- EC50 (HEK293 [11]; Homo sapiens): > 2500 nM
- IC50 (MCF-7 [12]; Homo sapiens, MCF7, 72 h): > 2500 nM
- EC50 (MCF-7 [12]; Homo sapiens): > 2500 nM
- IC50 (MDA-MB-231 [13]; Homo sapiens, 72 h): > 2500 nM
- EC50 (MDA-MB-231 [13]; Homo sapiens): > 2500 nM
- IC50 (51D1.3 [14]; Cricetulus griseus, 72 h): > 2500 nM
- EC50 (51D1.3 [14]; Cricetulus griseus): > 2500 nM
- IC50 (51D1 [15]; Cricetulus griseus, 72 h): > 2500 nM
- EC50 (51D1 [15]; Cricetulus griseus): > 2500 nM
- G1 cell cycle arrest (proportion of cells in G1) (MDA-MB-231 cells [19]): 87%
- PI staining of dying cells (cytotoxic effect) (MDA-MB-231 cells [20]): minimal PI staining
- Fold difference of the IC50 of the two cell lines (MDA-MB-231 vs MCF-7) (MDA-MB-231 [22]): 2.9 fold
- IC50 (MCF-7 [23]): 148 ± 25.7 nM
- IC50 (MDA-MB-231 [24]): 432 ± 16.1 nM
